According to PubChem BioAssay AID1963873 (Molecular Pharmacology Branch, DTP, NCI, 2024):

Tested on: 276233-004-R-J1-PDC KRAS spheroids with HUVEC/MSC, viability
Experiment: Anticancer human tumor 276233-004-R-J1-PDC patient-derived colon adenocarcinoma cell line growth inhibition [KRAS2]
Conditions: for IC50: curve of first compound; for viability, T/C: stronger effect = lower value
In short: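 Combination screen of spheroid viability in tumor-cell co-cultures with endothelial (HUVEC) and mesenchymal stem cell stroma. Each agent was tested in half-log dilutions, topping at clinical Cmax or at 10 microM without a known Cmax.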

[1] = second compound 0.1 µM, first compound 0.01 µM
[2] = second compound 0.1 µM, first compound 0.0316 µM
[3] = second compound 0.1 µM, first compound 0.1 µM
[4] = second compound 0.1 µM, first compound 0.316 µM
[5] = second compound 0.1 µM, first compound 1 µM
[6] = second compound 0.1 µM, first compound 3.16 µM
[7] = second compound 0.316 µM, first compound 0.01 µM
[8] = second compound 0.316 µM, first compound 0.0316 µM
[9] = second compound 0.316 µM, first compound 0.1 µM
[10] = second compound 0.316 µM, first compound 0.316 µM
[11] = second compound 0.316 µM, first compound 1 µM
[12] = second compound 0.316 µM, first compound 3.16 µM
[13] = second compound 1 µM, first compound 0.01 µM
[14] = second compound 1 µM, first compound 0.0316 µM
[15] = second compound 1 µM, first compound 0.1 µM
[16] = second compound 1 µM, first compound 0.316 µM
[17] = second compound 1 µM, first compound 1 µM
[18] = second compound 1 µM, first compound 3.16 µM
[19] = second compound 3.16 µM, first compound 0.01 µM
[20] = second compound 3.16 µM, first compound 0.0316 µM
[21] = second compound 3.16 µM, first compound 0.1 µM
[22] = second compound 3.16 µM, first compound 0.316 µM
[23] = second compound 3.16 µM, first compound 1 µM
[24] = second compound 3.16 µM, first compound 3.16 µM
[25] = second compound 10 µM, first compound 0.01 µM
[26] = second compound 10 µM, first compound 0.0316 µM
[27] = second compound 10 µM, first compound 0.1 µM
[28] = second compound 10 µM, first compound 0.316 µM
[29] = second compound 10 µM, first compound 1 µM
[30] = second compound 10 µM, first compound 3.16 µM
[31] = second compound 0.1 µM, first compound 0.000316 µM
[32] = second compound 0.1 µM, first compound 0.001 µM
[33] = second compound 0.1 µM, first compound 0.00316 µM
[34] = second compound 0.316 µM, first compound 0.000316 µM
[35] = second compound 0.316 µM, first compound 0.001 µM
[36] = second compound 0.316 µM, first compound 0.00316 µM
[37] = second compound 1 µM, first compound 0.000316 µM
[38] = second compound 1 µM, first compound 0.001 µM
[39] = second compound 1 µM, first compound 0.00316 µM
[40] = second compound 3.16 µM, first compound 0.000316 µM
[41] = second compound 3.16 µM, first compound 0.001 µM
[42] = second compound 3.16 µM, first compound 0.00316 µM
[43] = second compound 10 µM, first compound 0.000316 µM
[44] = second compound 10 µM, first compound 0.001 µM
[45] = second compound 10 µM, first compound 0.00316 µM
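Note: cells exposed to agents for seven days before viability read.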
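Throughout, for viability, T/C: 100% = DMSO vehicle control wells and lower values mean fewer viable cells.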

Structure (SMILES) | IC50 (second compound 0.1 µM) [nM] | IC50 (second compound 0.316 µM) [nM] | IC50 (second compound 1 µM) [nM] | IC50 (second compound 3.16 µM) [nM] | IC50 (second compound 10 µM) [nM] | viability, T/C [1] [%] | viability, T/C [2] [%] | viability, T/C [3] [%] | viability, T/C [7] [%] | viability, T/C [8] [%] | viability, T/C [9] [%] | viability, T/C [13] [%] | viability, T/C [14] [%] | viability, T/C [15] [%] | viability, T/C [19] [%] | viability, T/C [20] [%] | viability, T/C [21] [%] | viability, T/C [25] [%] | viability, T/C [26] [%] | viability, T/C [27] [%] | other results
CC1COCCN1c1cc(-c2ccnn2C)c2ccnc(-c3ccn[nH]3)c2n1 (stereo not given) + C=CC(=O)N1CCN(c2nc(=O)n(-c3c(C)ccnc3C(C)C)c3nc(-c4c(O)cccc4F)c(F)cc23)C(C)C1 | > 3160 | > 3160 | > 3160 | > 3160 | 1000 | 112 | 104 | 88.4 | 96.3 | 96.2 | 97.1 | 96 | 105 | 84.6 | 114 | 110 | 78.9 | 66 | 62.9 | 74.2 | viability, T/C [4]: 109%; viability, T/C [5]: 63.1%; viability, T/C [6]: 54.8%; viability, T/C [10]: 77.6%; viability, T/C [11]: 74.5%; viability, T/C [12]: 55.1%; viability, T/C [16]: 76.6%; viability, T/C [17]: 72.4%; viability, T/C [18]: 61.7%; viability, T/C [22]: 79.5%; viability, T/C [23]: 61.7%; viability, T/C [24]: 71%; viability, T/C [28]: 43.8%; viability, T/C [29]: 51.2%; viability, T/C [30]: 58.7%
Cn1ncnc1[C@H]1c2n[nH]c(=O)c3cc(F)cc(c23)N[C@@H]1c1ccc(F)cc1 + CC1OCC2(CCN(c3cnc(Sc4ccnc(N)c4Cl)c(N)n3)CC2)C1N | > 100 | > 100 | > 100 | > 100 | > 100 | 99 | 94.3 | 85.1 | 88.3 | 74.9 | 89.6 | 82.6 | 69.4 | 65.6 | 52.8 | 59.5 | 62.9 | 64.5 | 54.2 | 54 | viability, T/C [31]: 95.8%; viability, T/C [32]: 99.4%; viability, T/C [33]: 102%; viability, T/C [34]: 92.5%; viability, T/C [35]: 83.5%; viability, T/C [36]: 98.1%; viability, T/C [37]: 88.9%; viability, T/C [38]: 95.2%; viability, T/C [39]: 104%; viability, T/C [40]: 83.8%; viability, T/C [41]: 70.1%; viability, T/C [42]: 68.8%; viability, T/C [43]: 68.8%; viability, T/C [44]: 66.4%; viability, T/C [45]: 64.9%
CN(C)C/C=C/C(=O)Nc1cc2c(Nc3ccc(F)c(Cl)c3)ncnc2cc1O[C@H]1CCOC1 + C=CC(=O)N1CCN(c2nc(OCC3CCCN3C)nc3c2CCN(c2cccc4cccc(C)c24)C3)CC1CC#N | > 100 | > 100 | > 100 | 0.902 | – | 85 | 88 | 85.7 | 78.3 | 81.5 | 72.2 | 83.6 | 84.2 | 78.7 | 27.6 | 53.2 | 47.7 | – | – | – | IC50 (second compound 0.0316 µM): > 100 nM; viability, T/C (second compound 0.0316 µM, first compound 0.000316 µM): 112%; viability, T/C (second compound 0.0316 µM, first compound 0.001 µM): 114%; viability, T/C (second compound 0.0316 µM, first compound 0.00316 µM): 91.3%; viability, T/C (second compound 0.0316 µM, first compound 0.01 µM): 102%; viability, T/C (second compound 0.0316 µM, first compound 0.0316 µM): 97.4%; viability, T/C (second compound 0.0316 µM, first compound 0.1 µM): 86.3%; viability, T/C [31]: 116%; viability, T/C [32]: 93.8%; viability, T/C [33]: 91.3%; viability, T/C [34]: 87%; viability, T/C [35]: 110%; viability, T/C [36]: 91.9%; viability, T/C [37]: 84.8%; viability, T/C [38]: 78.8%; viability, T/C [39]: 70.5%; viability, T/C [40]: 67.5%; viability, T/C [41]: 52.7%; viability, T/C [42]: 37.8%
Cn1ncnc1[C@H]1c2n[nH]c(=O)c3cc(F)cc(c23)N[C@@H]1c1ccc(F)cc1 + COc1cc2nc(C)nc(NC(C)c3cc(N)cc(C(F)(F)F)c3)c2cc1OC1CCOC1 | > 100 | > 100 | > 100 | > 100 | < 0.316 | 87.1 | 89.7 | 76 | 83.6 | 87.9 | 83.2 | 85 | 87.6 | 79.5 | 99.5 | 68.1 | 86.1 | 34.8 | 29.4 | 27.2 | viability, T/C [31]: 90%; viability, T/C [32]: 81%; viability, T/C [33]: 76.2%; viability, T/C [34]: 89.1%; viability, T/C [35]: 96.7%; viability, T/C [36]: 84.7%; viability, T/C [37]: 83.3%; viability, T/C [38]: 91%; viability, T/C [39]: 82.6%; viability, T/C [40]: 85.3%; viability, T/C [41]: 90.9%; viability, T/C [42]: 85.2%; viability, T/C [43]: 33.7%; viability, T/C [44]: 40.1%; viability, T/C [45]: 29.1%
CC(=O)Nc1cccc(-n2c(=O)n(C3CC3)c(=O)c3c(Nc4ccc(I)cc4F)n(C)c(=O)c(C)c32)c1 + COc1cc2nc(C)nc(NC(C)c3cc(N)cc(C(F)(F)F)c3)c2cc1OC1CCOC1 | 5.58 | 4.05 | 2.77 | 1.8 | < 0.1 | 37.4 | 17 | – | 38.4 | 23 | – | 34.3 | 12.3 | – | 21.6 | 8.22 | – | 15.2 | 6.73 | – | viability, T/C (second compound 0.1 µM, first compound 0.0001 µM): 86%; viability, T/C [31]: 88.2%; viability, T/C [32]: 75.2%; viability, T/C [33]: 63%; viability, T/C (second compound 0.316 µM, first compound 0.0001 µM): 88.8%; viability, T/C [34]: 79.2%; viability, T/C [35]: 65.1%; viability, T/C [36]: 54.3%; viability, T/C (second compound 1 µM, first compound 0.0001 µM): 95.2%; viability, T/C [37]: 72.6%; viability, T/C [38]: 69.7%; viability, T/C [39]: 44.7%; viability, T/C (second compound 3.16 µM, first compound 0.0001 µM): 80.2%; viability, T/C [40]: 76.4%; viability, T/C [41]: 59.4%; viability, T/C [42]: 39.7%; viability, T/C (second compound 10 µM, first compound 0.0001 µM): 26.6%; viability, T/C [43]: 21.4%; viability, T/C [44]: 21.7%; viability, T/C [45]: 14%
CCNC(=O)CC1N=C(c2ccc(Cl)cc2)c2cc(OC)ccc2-n2c(C)nnc21 (stereo not given) + C=CC(=O)N1CCN(c2nc(=O)n(-c3c(C)ccnc3C(C)C)c3nc(-c4c(O)cccc4F)c(F)cc23)C(C)C1 | > 10000 | > 10000 | > 10000 | > 10000 | > 10000 | – | 102 | 86.5 | – | 111 | 92.8 | – | 87.5 | 101 | – | 84.4 | 87.1 | – | 79.6 | 63.3 | viability, T/C [4]: 78.5%; viability, T/C [5]: 76.6%; viability, T/C [6]: 62.6%; viability, T/C (second compound 0.1 µM, first compound 10 µM): 65.4%; viability, T/C [10]: 72%; viability, T/C [11]: 81.5%; viability, T/C [12]: 69.7%; viability, T/C (second compound 0.316 µM, first compound 10 µM): 79.3%; viability, T/C [16]: 72.7%; viability, T/C [17]: 63.3%; viability, T/C [18]: 81%; viability, T/C (second compound 1 µM, first compound 10 µM): 71.5%; viability, T/C [22]: 108%; viability, T/C [23]: 49.4%; viability, T/C [24]: 83.2%; viability, T/C (second compound 3.16 µM, first compound 10 µM): 69.3%; viability, T/C [28]: 66.2%; viability, T/C [29]: 61.3%; viability, T/C [30]: 74.7%; viability, T/C (second compound 10 µM, first compound 10 µM): 54.2%
